Consider one compound from patent US9580423B2, “Bicyclic heterocycles as FGFR4 inhibitors” (Incyte Corporation, priority 2015, dated 2017).

Test [1] concerns the target FGFR4 (Homo sapiens (Human), UniProt P22455). Description: FGFR Enzymatic Assay (FRET peptide phosphorylation), FGFR4. The conditions noted are these: pre-incubated for 4 hours.
Excerpt: (§1) The enzymes were purchased from Millipore or Invitrogen.
(§2) GraphPad prism3 was used to analyze the data. The IC50 values were derived by fitting the data to the equation for a sigmoidal dose-response with a variable slope. Y=Bottom+(Top-Bottom)/(1+10^((LogIC50−X)*HillSlope)) where X is the logarithm of concentration and Y is the response.
Test [2] deals with FGFR1 (Homo sapiens (Human), UniProt P11362). Description: FGFR Enzymatic Assay (FRET peptide phosphorylation), FGFR1. The following applies: read-out: FGFR1 IC50; pre-incubated for 4 hours.
Excerpt: as §1, §2
For test [3], the target named is FGFR3 (Homo sapiens (Human), UniProt P22607). Description: FGFR Enzymatic Assay (FRET peptide phosphorylation), FGFR3. The conditions noted are these: read-out: FGFR3 IC50; pre-incubated for 4 hours.
Excerpt: as §1, §2
The target of test [4] is FGFR2 (Homo sapiens (Human), UniProt P21802). Description: FGFR Enzymatic Assay (FRET peptide phosphorylation), FGFR2. The conditions noted are these: read-out: FGFR2 IC50; pre-incubated for 4 hours.
Excerpt: as §1, §2
Where [5] appears, read: IC50 ratio showing FGFR4 selectivity.

Chain of FGFR4 (P22455 22-802): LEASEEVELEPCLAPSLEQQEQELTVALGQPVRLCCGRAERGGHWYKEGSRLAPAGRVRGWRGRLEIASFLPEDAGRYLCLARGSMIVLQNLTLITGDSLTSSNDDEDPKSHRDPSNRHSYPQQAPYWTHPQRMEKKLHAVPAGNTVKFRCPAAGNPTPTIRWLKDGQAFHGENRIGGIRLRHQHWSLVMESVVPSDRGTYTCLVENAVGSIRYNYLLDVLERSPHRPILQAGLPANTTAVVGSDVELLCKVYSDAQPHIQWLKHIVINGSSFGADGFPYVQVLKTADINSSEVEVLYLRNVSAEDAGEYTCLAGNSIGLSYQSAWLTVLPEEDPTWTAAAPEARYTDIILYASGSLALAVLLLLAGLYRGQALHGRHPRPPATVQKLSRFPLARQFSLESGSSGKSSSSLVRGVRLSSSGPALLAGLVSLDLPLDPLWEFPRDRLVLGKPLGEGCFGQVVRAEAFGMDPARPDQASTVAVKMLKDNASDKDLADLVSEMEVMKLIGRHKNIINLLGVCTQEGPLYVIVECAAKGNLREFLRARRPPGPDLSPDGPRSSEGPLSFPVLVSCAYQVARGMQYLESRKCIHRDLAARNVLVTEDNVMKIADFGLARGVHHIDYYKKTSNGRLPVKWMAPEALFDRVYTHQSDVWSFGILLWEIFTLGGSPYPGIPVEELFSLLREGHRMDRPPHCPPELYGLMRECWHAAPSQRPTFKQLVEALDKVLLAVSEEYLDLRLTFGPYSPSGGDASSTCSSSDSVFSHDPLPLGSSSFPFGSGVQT
Chain of FGFR3 (P22607 23-806): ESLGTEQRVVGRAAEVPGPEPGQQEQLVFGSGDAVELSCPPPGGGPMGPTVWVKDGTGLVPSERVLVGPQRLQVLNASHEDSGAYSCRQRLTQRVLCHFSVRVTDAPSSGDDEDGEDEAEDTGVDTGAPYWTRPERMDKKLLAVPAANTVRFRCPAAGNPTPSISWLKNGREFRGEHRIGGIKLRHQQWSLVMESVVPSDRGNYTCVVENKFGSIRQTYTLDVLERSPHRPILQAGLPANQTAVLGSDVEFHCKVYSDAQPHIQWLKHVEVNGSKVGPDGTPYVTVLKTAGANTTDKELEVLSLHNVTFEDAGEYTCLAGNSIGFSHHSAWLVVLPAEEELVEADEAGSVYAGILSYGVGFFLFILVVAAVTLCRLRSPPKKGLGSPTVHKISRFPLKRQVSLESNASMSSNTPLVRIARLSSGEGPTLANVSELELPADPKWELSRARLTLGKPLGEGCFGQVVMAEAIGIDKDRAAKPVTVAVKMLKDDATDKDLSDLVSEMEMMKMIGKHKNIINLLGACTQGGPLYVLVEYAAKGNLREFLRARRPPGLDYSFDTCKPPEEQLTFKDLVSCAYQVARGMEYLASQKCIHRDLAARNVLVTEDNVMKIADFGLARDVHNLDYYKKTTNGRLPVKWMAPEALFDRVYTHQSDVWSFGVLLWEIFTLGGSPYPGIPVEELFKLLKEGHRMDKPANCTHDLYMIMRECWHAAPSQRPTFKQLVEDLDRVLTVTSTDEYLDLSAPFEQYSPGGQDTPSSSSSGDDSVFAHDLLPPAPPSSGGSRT
Chain of FGFR2 (P21802 22-821): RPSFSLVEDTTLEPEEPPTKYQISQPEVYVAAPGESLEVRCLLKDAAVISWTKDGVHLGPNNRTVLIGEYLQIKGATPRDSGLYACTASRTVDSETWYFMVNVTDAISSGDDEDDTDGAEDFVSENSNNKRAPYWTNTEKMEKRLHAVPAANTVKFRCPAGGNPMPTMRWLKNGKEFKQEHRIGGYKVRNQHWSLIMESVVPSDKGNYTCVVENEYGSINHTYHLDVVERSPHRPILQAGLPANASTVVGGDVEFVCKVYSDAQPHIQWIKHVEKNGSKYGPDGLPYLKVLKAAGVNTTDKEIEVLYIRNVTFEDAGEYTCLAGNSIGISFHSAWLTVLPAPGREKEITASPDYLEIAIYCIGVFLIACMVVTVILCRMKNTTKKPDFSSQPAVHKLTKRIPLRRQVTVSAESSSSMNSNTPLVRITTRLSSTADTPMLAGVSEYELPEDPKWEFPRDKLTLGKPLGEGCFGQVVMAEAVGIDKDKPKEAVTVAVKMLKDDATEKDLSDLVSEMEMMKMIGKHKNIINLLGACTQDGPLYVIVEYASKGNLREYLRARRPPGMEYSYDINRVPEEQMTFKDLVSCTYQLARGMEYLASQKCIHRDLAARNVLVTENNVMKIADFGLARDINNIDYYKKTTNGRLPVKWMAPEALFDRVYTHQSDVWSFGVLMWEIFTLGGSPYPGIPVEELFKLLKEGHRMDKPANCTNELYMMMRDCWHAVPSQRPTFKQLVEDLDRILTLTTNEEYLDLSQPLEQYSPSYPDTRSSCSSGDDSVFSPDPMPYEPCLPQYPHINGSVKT
Chain of FGFR1 (P11362 22-822): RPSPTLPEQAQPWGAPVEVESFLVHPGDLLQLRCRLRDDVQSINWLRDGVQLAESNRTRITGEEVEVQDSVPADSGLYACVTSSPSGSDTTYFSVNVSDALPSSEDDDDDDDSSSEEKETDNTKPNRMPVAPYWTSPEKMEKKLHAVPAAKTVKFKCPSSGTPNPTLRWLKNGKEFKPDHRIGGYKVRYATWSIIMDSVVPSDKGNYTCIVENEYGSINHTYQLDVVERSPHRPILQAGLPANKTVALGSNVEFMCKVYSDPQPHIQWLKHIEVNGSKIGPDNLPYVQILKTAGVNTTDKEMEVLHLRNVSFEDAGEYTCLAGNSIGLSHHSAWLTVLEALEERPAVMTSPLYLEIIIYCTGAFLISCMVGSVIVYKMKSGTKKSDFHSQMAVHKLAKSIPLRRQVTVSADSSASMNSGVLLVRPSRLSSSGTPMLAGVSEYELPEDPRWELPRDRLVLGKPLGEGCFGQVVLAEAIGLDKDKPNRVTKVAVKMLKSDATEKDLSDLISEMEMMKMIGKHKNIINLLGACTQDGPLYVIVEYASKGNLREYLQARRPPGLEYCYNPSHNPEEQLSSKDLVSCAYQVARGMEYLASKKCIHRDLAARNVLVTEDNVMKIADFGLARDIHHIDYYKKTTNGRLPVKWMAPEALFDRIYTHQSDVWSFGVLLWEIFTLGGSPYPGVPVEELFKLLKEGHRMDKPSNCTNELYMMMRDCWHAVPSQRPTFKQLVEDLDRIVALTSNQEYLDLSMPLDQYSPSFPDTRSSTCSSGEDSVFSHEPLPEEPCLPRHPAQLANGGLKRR

In the case of `C=CC(=O)Nc1ccc(C)c(-c2ncc3c(n2)C2(CC2)C(=O)N(c2c(F)c(OC)cc(OC)c2F)C3)c1` [Example 37, N-(3-(6′-(2,6-difluoro-3,5-dimethoxyphenyl)-7′-oxo-6′,7′-dihydro-5′H-spiro[cyclopropane-1,8′-pyrido[4,3-d]pyrimidine]-2′-yl)-4-methylphenyl)acrylamide], the “FGFR1/FGFR4 IC50 ratio” value in test [1] (setting [5]) was more than 100. For the same compound, in test [1] (setting [5]), the “FGFR2/FGFR4 IC50 ratio” value is on record as more than 100. For the same compound, in test [1] (setting [5]), the “FGFR3/FGFR4 IC50 ratio” value is given as more than 100. The half-maximal inhibitory concentration (IC50) was less than 10 nM in test [1] (read-out: FGFR4 IC50), more than 200 nM in test [2], more than 200 nM in test [3] and more than 200 nM in test [4].

By IC50 is commonly meant the concentration that inhibits the measured activity by half.
